These results are taken from ChEMBL document CHEMBL4665793, “Screening and Reverse-Engineering of Estrogen Receptor Ligands as Potent Pan-Filovirus Inhibitors” (J Med Chem, 2020).

Data set [1] concerns Marburgvirus. The class given is functional, organism-based. The settings on record: Orthomarburgvirus, Angola, A549, 24 h.
A short description of data set [2]: in vitro. The settings on record: human, A549 cells.
A short description of data set [3]: in vitro. Particulars: human, A549 cells. This is another data set of the same source.
Another data set relates to Zaire ebolavirus. The data set is described as follows: microbe, parasite or virus in culture. The settings on record: Mayinga, Zaire, 1976, A549, 48 h.
The test system of data set [4] is Marburgvirus. Briefly: microbe, parasite or virus in culture. The settings on record: Orthomarburgvirus, Musoke, A549, 48 h.
Data set [5] concerns the target T1, Estrogen receptor (Homo sapiens) (UniProt P03372).
T1 sequence (whole entry): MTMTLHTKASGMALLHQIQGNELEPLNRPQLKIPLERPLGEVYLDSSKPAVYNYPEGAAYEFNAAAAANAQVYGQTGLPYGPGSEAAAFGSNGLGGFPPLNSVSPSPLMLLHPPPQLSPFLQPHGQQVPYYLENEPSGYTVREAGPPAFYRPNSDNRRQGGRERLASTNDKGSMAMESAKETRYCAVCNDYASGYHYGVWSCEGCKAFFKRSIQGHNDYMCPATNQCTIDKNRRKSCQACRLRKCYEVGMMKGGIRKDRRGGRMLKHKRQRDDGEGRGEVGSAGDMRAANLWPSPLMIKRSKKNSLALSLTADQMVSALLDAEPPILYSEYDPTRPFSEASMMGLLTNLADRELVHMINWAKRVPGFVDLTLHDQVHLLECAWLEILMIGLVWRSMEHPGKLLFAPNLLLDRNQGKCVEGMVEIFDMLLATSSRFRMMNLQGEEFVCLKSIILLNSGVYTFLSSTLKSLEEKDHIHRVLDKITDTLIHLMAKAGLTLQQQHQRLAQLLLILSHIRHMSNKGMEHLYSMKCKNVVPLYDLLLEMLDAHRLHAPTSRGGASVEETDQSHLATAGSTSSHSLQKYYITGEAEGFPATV
Briefly: Agonist activity at ER-alpha in human MCF-7:WS8 cells transfected with an estrogen response element incubated for 18 hrs by luciferase reporter gene assay. Particulars: MCF7. Type of data set: cell-based. A general note: In a reporter assay the amount or activity of a reporter protein is the signal.

The next data set relates to A549. The class given is cell-based. Particulars: human.
For data set [6], the system named is Ebolavirus. Briefly: Antiviral activity against Ebolavirus (pBDBV) assessed as inhibition of viral entry. The class given is functional, organism-based.
Another data set relates to Mengla dianlovirus. Briefly: Antiviral activity against Mengla-virus assessed as inhibition of viral entry. The class given is functional.
The subject of data set [7] is Ebolavirus. The data set is described as follows: Antiviral activity against Ebolavirus Tai Forest assessed as inhibition of viral entry. The class given is functional, organism-based.
For data set [8], the system named is Ebolavirus. The data set is described as follows: Antiviral activity against Ebolavirus (pRESTV) assessed as inhibition of viral entry. Type of data set: functional, organism-based.
Data set [9] relates to Vesicular stomatitis virus. The data set is described as follows: Antiviral activity against vesicular stomatitis virus assessed as inhibition of viral entry. The class given is functional, organism-based.
The next data set relates to Influenza A virus. Briefly: Antiviral activity against Influenza A virus H5N1 assessed as inhibition of viral entry. The class given is functional, organism-based.
Data set [10] has as its target T1, Estrogen receptor (Homo sapiens). The data set is described as follows: Antagonist activity at ER-alpha in human MCF-7:WS8 cells transfected with an estrogen response element assessed as suppression of estrogen-induced response incubated for 18 hrs by luciferase reporter gene assay. Type of data set: cell-based. The settings on record: MCF7.

Each structure is given as a SMILES string. Activity calls are given as the source filed them. No cut-off for these calls is given here.

In the case of `Cc1ccccc1C(=O)c1sc2cc(O)ccc2c1Oc1ccc(OCCN2CC(CF)C2)cc1`, the concentration for half-maximal inhibition (IC50) with Marburgvirus [1] was over 6250 nM; in the data set on Zaire ebolavirus, 1020 nM; in the data set with Marburgvirus [4], 3880 nM. The selectivity ratio in “in vitro [2]” came to 7; in the data set “in vitro [3]” it was 27.
The corresponding values for `CC/C(=C(/c1ccc(NC(=O)CN2CCOCC2)cc1)c1ccc(OCCN2CCCC2)cc1)c1ccccc1` are 2800 nM, 350 nM, 1210 nM, 14 and 47.
Turning to `CC/C(=C(/c1ccc(N)cc1)c1ccc(OCCN2CCCC2)cc1)c1ccccc1`, the IC50 with Marburgvirus [1] worked out at 1780 nM; in the data set on Zaire ebolavirus, 130 nM; in the data set on Marburgvirus [4], 1070 nM. For the same molecule, the values for the selectivity ratio in the data set “in vitro [2]” and in “in vitro [3]” were 13 and 147, respectively.
Taken in the same sequence, the figures for `COc1ccc2c(c1)CCC(c1ccccc1)=C2c1ccc(OCCN2CCCC2)cc1` [NAFOXIDINE] were over 6250 nM, 100 nM, 1300 nM, 6 and 82.
In the case of `Oc1ccc2c(Oc3ccc(OCCN4CCCCC4)cc3)c(-c3ccc(F)cc3)sc2c1`, the selectivity ratio in “in vitro [2]” is 7; in “in vitro [3]”, 15. Further, the IC50 in the data set on Zaire ebolavirus came to 980 nM; with Marburgvirus [4], 2040 nM.
Take `Nc1ccc(-c2sc3cc(O)ccc3c2Oc2ccc(OCCN3CCCCC3)cc2)cc1`: the result in [5] was inactive. Besides, the IC50 is over 6250 nM with Marburgvirus [1], 130 nM in the data set on Zaire ebolavirus and 1450 nM in the data set on Marburgvirus [4]. The selectivity ratio in the data set “in vitro [2]” is over 69; in the data set “in vitro [3]” it was over 770.
As to `Oc1ccc2c(Oc3ccc(OCCN4CCCCC4)cc3)c(-c3ccccc3)sc2c1`, the 50% inhibitory concentration (IC50) with Marburgvirus [1] was over 6250 nM; in the data set with Zaire ebolavirus, 300 nM; with Marburgvirus [4], 670 nM. In addition, the results for the selectivity ratio in “in vitro [2]” and in “in vitro [3]” were 20 and 45, respectively.
As for `CCC(c1ccccc1)C(O)(c1ccc(OCCN(C)C)cc1)c1cccc(O)c1` (centres undefined), the selectivity ratio in the data set “in vitro [2]” was 9; in the data set “in vitro [3]” it was 22. The half-maximal inhibitory concentration (IC50) is 1740 nM in the data set on Zaire ebolavirus and 4400 nM in the data set with Marburgvirus [4].
Regarding `CC/C(=C(/c1ccc(NC(=O)C2CCN(C3CCN(C)CC3)CC2)cc1)c1ccc(OCCN2CCCC2)cc1)c1ccccc1`, the IC50 stood at 1070 nM in the data set with Marburgvirus [1], 180 nM with Zaire ebolavirus and 2050 nM in the data set on Marburgvirus [4]. Besides, the selectivity ratio in the data set “in vitro [2]” stood at 16; in “in vitro [3]”, 79.
Take `CC/C(=C(/c1ccc(NC(=O)CC2CCN(C)CC2)cc1)c1ccc(OCCN2CCCC2)cc1)c1ccccc1`: the IC50 was 870 nM with Marburgvirus [1], 6 nM in the data set with Zaire ebolavirus and 620 nM with Marburgvirus [4]. The selectivity ratio in “in vitro [2]” worked out at 33; in “in vitro [3]”, 1400.
`CC1=C(c2ccc(O)cc2)[C@H](c2ccc(OCCN3CCCCC3)cc2)Oc2ccccc21`: the selectivity ratio in the data set “in vitro [2]” came out at 19; in “in vitro [3]”, 11. Moreover, the 50% inhibitory concentration (IC50) with Zaire ebolavirus is 1500 nM; in the data set with Marburgvirus [4] it was 900 nM.
Consider `CC/C(=C(/c1ccc(NC(=O)CN2CCOCC2)cc1)c1ccc(OCCN2CCOCC2)cc1)c1ccccc1`, for which the figures for the concentration for half-maximal inhibition (IC50) in the data set with Marburgvirus [1], with Zaire ebolavirus and with Marburgvirus [4] were 3240 nM, 740 nM and 4230 nM, respectively. Besides, the selectivity ratio in “in vitro [2]” was determined as 13; in the data set “in vitro [3]”, 40.
On to `COc1ccc(-c2sc3cc(OC)ccc3c2Oc2ccc(OCCN3CCC(CCNC(=O)CCCCNC(=O)OC(C)(C)C)CC3)cc2)cc1`, for which the results for the selectivity ratio in the data set “in vitro [2]” and in the data set “in vitro [3]” were 76 and 57, respectively. Further, the half-inhibitory concentration (IC50) in the data set on Zaire ebolavirus amounted to 800 nM; with Marburgvirus [4], 600 nM.
On to `COc1ccc2c(Oc3ccc(OCCN4CCCCC4)cc3)c(-c3ccc(Br)cc3)[s+]([O-])c2c1` (centres undefined), for which the selectivity ratio is over 55 in “in vitro [2]” and over 47 in “in vitro [3]”. Further, the results for the IC50 in the data set with Zaire ebolavirus and in the data set on Marburgvirus [4] were 2140 nM and 1810 nM, respectively.
Take `OCCOc1ccc(/C(=C(/CCCl)c2ccccc2)c2ccccc2)cc1` [OSPEMIFENE]: the values for the selectivity ratio in the data set “in vitro [2]” and in “in vitro [3]” were under 1 and 7, respectively. In addition, the results for the IC50 with Zaire ebolavirus and with Marburgvirus [4] were 3800 nM and 34400 nM, respectively.
As for `Cc1c(-c2ccc(O)cc2)n(Cc2ccc(OCCN3CCCCCC3)cc2)c2ccc(O)cc12` [BAZEDOXIFENE], the selectivity ratio in the data set “in vitro [2]” was found to be 6; in “in vitro [3]”, 10. Further, the IC50 turned out to be 2240 nM with Zaire ebolavirus and 3830 nM in the data set on Marburgvirus [4].
On to `CCC(=C(c1ccc(OCCN2CCCC2)cc1)c1ccc(OCCN2CCCC2)cc1)c1ccccc1`, for which the result in data set [5] was inactive. For the same molecule, half-maximal cytotoxicity in the data set with A549 (CC50) was put at 8100 nM. The IC50 with Marburgvirus [1] was determined as 1560 nM; in the data set with Zaire ebolavirus it was 20 nM; in the data set with Marburgvirus [4], 610 nM. Further, the selectivity ratio stood at 13 in “in vitro [2]” and 405 in “in vitro [3]”.
Regarding `CC/C(=C(/c1ccc(NCCN2CCOCC2)cc1)c1ccc(OCCN2CCOCC2)cc1)c1ccccc1`, the results for the IC50 in the data set with Marburgvirus [1], in the data set with Zaire ebolavirus and with Marburgvirus [4] were 2900 nM, 230 nM and 2180 nM, respectively. Moreover, the selectivity ratio was under 2 in the data set “in vitro [2]” and 111 in the data set “in vitro [3]”.
Take `CCNCCc1ccc(CN(CC)c2cc(OC)ccc2[C@@H]2CCc3cc(O)ccc3C2)cc1` [ELACESTRANT]: the values for the selectivity ratio in “in vitro [2]” and in “in vitro [3]” were 8 and 44, respectively. Also, the IC50 was 240 nM in the data set on Zaire ebolavirus and 1300 nM in the data set with Marburgvirus [4].
On to `Cc1c(-c2ccc(O)cc2)nn(-c2ccc(O)cc2)c1-c1ccc(OCCN2CCCCC2)cc1`, for which the selectivity ratio in the data set “in vitro [2]” stood at 12; in the data set “in vitro [3]”, 11. In addition, the values for the IC50 with Zaire ebolavirus and in the data set with Marburgvirus [4] were 1310 nM and 1190 nM, respectively.
`CN(C)CCOc1ccc(/C(=C(/CCCl)c2ccccc2)c2ccccc2)cc1` [TOREMIFENE]: the inhibition entry with Ebolavirus [6], in the data set with Mengla dianlovirus, in the data set with Ebolavirus [7] and in the data set on Ebolavirus [8] was “Active” in each case. The half-maximal inhibitory concentration (IC50) in the data set on Marburgvirus [1] is 3900 nM; with Zaire ebolavirus, 70 nM; with Marburgvirus [4], 2600 nM. Besides, the results for the selectivity ratio in “in vitro [2]” and in the data set “in vitro [3]” were 6 and 229, respectively.
With `CC/C(=C(/c1ccc(NC(=O)CN2CCN(C)CC2)cc1)c1ccc(OCCN2CCCC2)cc1)c1ccccc1`, the IC50 with Marburgvirus [1] was determined as 360 nM; with Zaire ebolavirus it was 10 nM; in the data set on Marburgvirus [4], 420 nM. Further, the selectivity ratio in the data set “in vitro [2]” was 7; in “in vitro [3]”, 1400.
Regarding `COc1ccc2c(Oc3ccc(OCCN4CCCCC4)cc3)c(-c3ccccc3)sc2c1`, the IC50 was over 6250 nM with Marburgvirus [1], 260 nM in the data set with Zaire ebolavirus and 3180 nM in the data set with Marburgvirus [4]. The selectivity ratio in “in vitro [2]” is 8; in the data set “in vitro [3]” it was 88.
Consider `CC/C(=C(/c1ccc(NCCN2CCCC2)cc1)c1ccc(OCCN2CCCC2)cc1)c1ccccc1`, for which the IC50 is over 25000 nM with Marburgvirus [1], 330 nM in the data set on Zaire ebolavirus and over 12500 nM with Marburgvirus [4]. Moreover, the selectivity ratio came to 18 in the data set “in vitro [2]” and 79 in “in vitro [3]”.
Turning to `COc1ccc2c(Oc3ccc(OCCN4CCCCC4)cc3)c(-c3ccc(Br)cc3)sc2c1`, the selectivity ratio in the data set “in vitro [2]” turned out to be 37; in “in vitro [3]”, 74. Besides, the half-inhibitory concentration (IC50) in the data set on Zaire ebolavirus was 630 nM; in the data set with Marburgvirus [4], 1250 nM.
On to `CC/C(=C(/c1ccc(NC(=O)N2CCN(C)CC2)cc1)c1ccc(OCCN2CCCC2)cc1)c1ccccc1`, for which the IC50 with Marburgvirus [1] was 1060 nM; with Zaire ebolavirus it was 30 nM; in the data set with Marburgvirus [4], 750 nM. In addition, the selectivity ratio in “in vitro [2]” came out at 11; in the data set “in vitro [3]” it was 740.
As for `Cc1cc(F)cc(C)c1C(=O)c1sc2cc(O)ccc2c1Oc1ccc(OCCN2CC(CF)C2)cc1`, the values for the selectivity ratio in the data set “in vitro [2]” and in the data set “in vitro [3]” were 15 and 21, respectively. Moreover, the IC50 was determined as 1320 nM with Zaire ebolavirus and 1870 nM with Marburgvirus [4].
Consider `CC/C(=C(/c1ccc(NC(=O)C2CCN(C)CC2)cc1)c1ccc(OCCN2CCCC2)cc1)c1ccccc1`, for which the inhibition result (in data set [9]; in the data set on Influenza A virus; in [10]) was “inactive” in each case. Besides, the inhibition result with Ebolavirus [6], in the data set on Mengla dianlovirus, in the data set with Ebolavirus [7] and with Ebolavirus [8] was “Active” in each case. Moreover, in [5], the result was inactive. The IC50 came out at 640 nM with Marburgvirus [1], 10 nM with Zaire ebolavirus and 540 nM with Marburgvirus [4]. Besides, the values for the selectivity ratio in “in vitro [2]” and in the data set “in vitro [3]” were 12 and 590, respectively.

Broadly, the IC50 is the concentration that inhibits the measured activity by half. What is called CC50 is the concentration that lowers cell viability or growth by half.
